Test results from patent US12679878B2, “CRF2 receptor agonists and their use in therapy” (SANOFI, priority 2020, dated 2026).
In brackets after ≈: the same amount, converted by molar mass. Like-named read-outs stand apart in the source and are kept apart here. Starred links: 1 amine or outer side, 2 acyl side, 3 side chain; linkers in the order of their positions; H or OH if unused. Non-standard residues stand in square brackets, D forms with d. Residues, ends and D or L forms follow the SMILES beside them. Groups on a side chain read outwards from the residue. *: point of attachment. C20 diacid = O=C(O)CCCCCCCCCCCCCCCCCCC(=O)*; C18 diacid = O=C(O)CCCCCCCCCCCCCCCCC(=O)*; γGlu = O=C(O)[C@H](CCC(=O)[*:2])N[*:1]; Palmitoyl = CCCCCCCCCCCCCCCC(=O)*; AEEA = NCCOCCOCC(=O)O; Aib = CC(C)(N)C(=O)O

Assays:
CRF2R = target: T1, CRF2R (Homo sapiens, UniProt Q13324); assay: EC50 [nM] CRF2R
T1 construct: expressed in transfected cells; host or cells: TeloHEAC
Text: (§1) Table printed on a drawing sheet, Fig. 3
Head of the field: EC50 [nM] CRF2R
(§2) The patent's description of the figure: FIG. 3: Representative sequences from peptides according to the invention with an optimized stability profile, wherein K[sema] stands for K[gGlu-C(O)(CH2)14CH3]
(§3) First copying reader's note: Second half (positions 13-38, C-term and activity) of the first table; the rows follow the same order, so the four rows of Peptide Seq. 1 are Patent Sequence N° 130, 171, 172 and 173.
Where the first naming reader finds the target: head: EC50 [nM] CRF2R

hCRF1 = target: T2, hCRF1 (Homo sapiens, UniProt P34998); assay: hCRF1 EC50 [nM]
T2 construct: host or cells: CHO-K1 clone 2
Text: as §1
Head of the field: hCRF1 EC50 [nM]
as §2, §3
Where the first naming reader finds the target: head: hCRF1 EC50 [nM]

human CRF2α receptor = target: T3, human CRF2α receptor (Homo sapiens, UniProt Q13324); assay: cAMP agonism at human CRF2 α receptor in TeloHEAC cells (Example 7); format: cell-based; conditions: cAMP HTRF, TeloHEAC cells stably expressing human CRF2 α
T3 construct: expressed in transfected cells; host or cells: TeloHEAC
T3 sequence (Q13324 1-411): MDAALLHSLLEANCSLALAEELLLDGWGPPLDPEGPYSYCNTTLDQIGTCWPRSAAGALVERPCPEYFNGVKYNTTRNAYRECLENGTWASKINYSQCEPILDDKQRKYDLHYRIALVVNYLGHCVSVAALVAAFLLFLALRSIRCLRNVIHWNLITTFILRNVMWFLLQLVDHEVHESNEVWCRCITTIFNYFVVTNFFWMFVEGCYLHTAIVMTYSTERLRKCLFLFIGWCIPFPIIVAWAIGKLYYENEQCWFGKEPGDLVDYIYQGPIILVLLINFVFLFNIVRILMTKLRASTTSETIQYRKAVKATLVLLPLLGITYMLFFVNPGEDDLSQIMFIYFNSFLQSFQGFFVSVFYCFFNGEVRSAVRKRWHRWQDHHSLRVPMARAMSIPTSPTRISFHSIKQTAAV
Summary of the method: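 HTRF ratio 665/620 nm, read 1 h after lysis reagents, reports cAMP. Cells: thawed stocks, 2000/well, 30 min RT with compound in HBSS, 20 mM HEPES, 0 or 0.1% HSA, 2 mM IBMX. Activity normalised to UCN2 1000 nM = 100%; EC50 from half-maximal activation.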

rat CRF2R α receptor = assay: cAMP agonism at rat CRF2R α receptor in A7R5 rat aortic smooth muscle cells (Example 8); format: cell-based; conditions: cAMP HTRF, A7R5 rat aortic smooth muscle cell line, 0% HSA
Summary of the method: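 Thawed cryopreserved A7R5 cells in HBSS/20 mM HEPES (0 or 0.1% HSA) with 2 mM IBMX, 2000 cells/well, were exposed to compound for 30 min at room temperature. cAMP was read by HTRF (665/620 nm ratio) after 1 h with lysis reagents. Activity was normalised to 1000 nM urocortin 2 as 100%, and EC50 was taken as the concentration giving 50% of maximal activation.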

CRF1R receptor = target: T4, CRF1R receptor (Homo sapiens, UniProt P34998); assay: cAMP activity at anti-target CRF1R, CRF1R-overexpression CHO cell line (Example 9); format: cell-based; conditions: CRF1R-overexpression CHO cell line; for EC50: 0% HSA; for Emax: read-out: Emax (%)
T4 construct: host or cells: CHO-K1 clone 2
T4 sequence (P34998 24-415): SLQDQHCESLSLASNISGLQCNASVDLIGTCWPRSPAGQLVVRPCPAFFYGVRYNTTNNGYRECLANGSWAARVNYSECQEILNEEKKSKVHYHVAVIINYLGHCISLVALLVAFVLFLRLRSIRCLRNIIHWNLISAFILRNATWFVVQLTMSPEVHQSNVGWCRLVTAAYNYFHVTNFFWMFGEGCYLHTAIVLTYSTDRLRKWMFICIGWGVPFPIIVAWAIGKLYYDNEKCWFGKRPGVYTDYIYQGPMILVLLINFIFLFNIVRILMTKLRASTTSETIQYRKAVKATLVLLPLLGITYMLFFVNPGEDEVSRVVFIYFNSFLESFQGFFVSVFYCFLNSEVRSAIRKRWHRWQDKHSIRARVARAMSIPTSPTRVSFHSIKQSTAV
Summary of the method: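 cAMP accumulation was read by HTRF after 30 min at room temperature of compound treatment. Cells were cryopreserved CHO cells overexpressing CRF1R, plated at 2000/well in IBMX (2 mM)-containing HBSS/HEPES buffer with 0 or 0.1% HSA. Activity was normalized to 1000 nM UCN2 as 100%.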

endogenous human CRF2 = target: T5, endogenous human CRF2 (Homo sapiens, UniProt Q13324); assay: cAMP agonist effect in NCI-H82 cells expressing endogenous human CRF2 (Example 10); format: cell-based; conditions: cAMP HTRF, 5 min activation
T5 construct: endogenous in cells; host or cells: NCI-H82
T5 sequence (Q13324 1-411): T3 sequence (Q13324 1-411)
Method: The agonist effect of the compounds was assessed in NCI-H82 cells expressing endogenous human CRF2.
NCI-H82 cells in suspension were plated in low-volume 384-well plates at a density of 30000 cells/well in 5 μl of test medium (RPMI+1 mM IBMX). The plates were briefly centrifuged at 800 rpm to allow the cell suspension to move to the bottom of the wells and then incubated for 2 hours at 37° C. in 5% CO2. 5 μl of test compounds at appropriate concentrations (10-11 to 3×10-7) diluted in test medium were then transferred in 384 wells plates. After 5 min of activation, the reaction was stopped by addition of HTRF revelation reagents with a multidrop dispenser. The two reagents were 5 μl/well of Anti-CAMP-cryptate diluted 20-fold in conjugate and lysis buffer and 5 μl/well of cAMP-D2 diluted 20-fold in conjugate and lysis buffer. After one-hour incubation at room temperature in the dark, the plates were read on a Clariostar apparatus.

[1] = Solubility in buffer systems by UPLC-UV (Example 13); format: physicochemical
Summary of the method: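 The supernatant was diluted 1:10 and quantified by UPLC-UV peak area against a reference standard curve, correcting for sequence-based extinction coefficients.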

[2] = Chemical stability, purity loss by UPLC-UV after 28 days at 40° C. vs 5° C., pH 4.5 acetate buffer (Example 12); format: physicochemical; conditions: 28 days 40° C. vs 5° C.; pH 4.5, 20 mM acetate buffer; 300 μM
Summary of the method: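 300 μM compound (purity-corrected) in 20 mM acetate buffer, pH 4.5, stored 28 days at 5 and 40° C. Purity by UPLC-UV as compound peak area over total peak area. Value is the purity difference between 5° C. and 40° C. samples, relative to the 5° C. purity, in percent.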

[3] = Physical stability, Thioflavin T fibrillation assay (Example 14); format: physicochemical; conditions: Buffer B: 100 mM acetate buffer, pH 4.5, 2.7 mg/ml m-cresol; 3 mg/ml; 37° C. shaking
Summary of the method: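 Compounds at 3 mg/ml final in buffer were stressed at 37° C by repeated cycles of 10 s shaking at 960 rpm and 50 s rest. ThT fluorescence was read every 20 minutes in eight replicates, with fluorescence increase and lag time indicating fibrillation tendency.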

[4] = 0% HSA, read-out: EC50 [nM], 0% HSA
[5] = 0.1% HSA, read-out: EC50 [nM], 0.1% HSA

Structure (SMILES)	EC50 (CRF2R)	EC50 (hCRF1)	EC50 (human CRF2α receptor; [4])	EC50 (human CRF2α receptor; [5])	EC50 (rat CRF2R α receptor)	EC50 (CRF1R receptor)	Emax (CRF1R receptor)	EC50 (endogenous human CRF2)	solubility at 1 h ([1]; pH 4.5, Solubility in Buffer B [mg/ml])	solubility at 1 h ([1]; pH 7.4, Solubility in Buffer C [mg/ml])	Relative purity loss [%] [2]	Increase in FI (fluorescence intensity) [3]	Lag time [3]
CCCCCCCCCCCCCCCC(=O)N[C@@H](CCC(=O)NCCCC[C@H](NC(=O)[C@@H](NC(=O)[C@H](CCCCN)NC(=O)[C@@H](NC(=O)[C@@H]1CCCN1C(=O)[C@@H](NC(=O)[C@H](CC(=O)O)NC(=O)[C@H](CC(C)C)NC(=O)[C@H](CO)NC(=O)[C@H](CC(C)C)NC(=O)[C@@H](NC(=O)[C@@H](N)Cc1ccccc1)[C@@H](C)O)C(C)C)[C@@H](C)O)[C@@H](C)CC)C(=O)N[C@@H](CCC(N)=O)C(=O)N[C@@H](CCCCN)C(=O)N[C@@H](CC(C)C)C(=O)N[C@@H](CC(C)C)C(=O)N[C@@H](CCCCN)C(=O)N[C@@H](CCC(N)=O)C(=O)N[C@@H](CCC(=O)O)C(=O)N[C@@H](CCCCN)C(=O)N[C@@H](CCC(N)=O)C(=O)N[C@@H](CCCCN)C(=O)N[C@@H](CCCCN)C(=O)N[C@@H](CCC(N)=O)C(=O)N[C@@H](CCCNC(=N)N)C(=O)N[C@@H](CCC(N)=O)C(=O)N[C@@H](CCCCN)C(=O)N[C@@H](C)C(=O)N[C@@H](CCCCN)C(=O)N[C@H](C(=O)N[C@@H](CC(N)=O)C(=O)N[C@@H](CCCCN)C(=O)N[C@@H](CCC(N)=O)C(=O)N[C@H](C(=O)N[C@@H](CC(C)C)C(=O)N[C@@H](CCC(=O)O)C(=O)N[C@@H](CCC(N)=O)C(=O)N[C@H](C(N)=O)C(C)C)[C@@H](C)CC)[C@@H](C)O)C(=O)O [SEQ ID NO: 10] (H-FTLSLDVPTKIK([γGlu-Palmitoyl])QKLLKQEKQKKQRQKAKTNKQILEQV-NH2)	0.07 nM	91 nM											
CC[C@H](C)[C@H](N)C(=O)N[C@H](C(=O)N[C@@H](CC(C)C)C(=O)N[C@@H](CO)C(=O)N[C@@H](CC(C)C)C(=O)N[C@@H](CC(=O)O)C(=O)N[C@H](C(=O)N1CCC[C@H]1C(=O)N[C@H](C(=O)N[C@@H](CCCCN)C(=O)N[C@@H](CC(C)C)C(=O)N[C@@H](CCCCNC(=O)COCCOCCNC(=O)COCCOCCNC(=O)CC[C@H](NC(=O)CCCCCCCCCCCCCCCCCCC(=O)O)C(=O)O)C(=O)N[C@@H](CCC(N)=O)C(=O)N[C@H](C(=O)N[C@@H](CC(C)C)C(=O)N[C@@H](CC(C)C)C(=O)N[C@@H](CCC(=O)O)C(=O)N[C@@H](CCC(N)=O)C(=O)N[C@@H](CCC(=O)O)C(=O)N[C@@H](CCCCN)C(=O)N[C@@H](CCC(N)=O)C(=O)N[C@@H](CCCCN)C(=O)NC(C)(C)C(=O)N[C@@H](CCC(N)=O)C(=O)N[C@@H](CCCNC(=N)N)C(=O)N[C@@H](CCC(=O)O)C(=O)N[C@@H](CCC(N)=O)C(=O)N[C@@H](C)C(=O)N[C@@H](CCC(=O)O)C(=O)N[C@H](C(=O)N[C@@H](CC(N)=O)C(=O)N[C@@H](CCCCN)C(=O)N[C@@H](CCC(N)=O)C(=O)N[C@H](C(=O)N[C@@H](CC(C)C)C(=O)N[C@@H](C)C(=O)N[C@@H](CCC(N)=O)C(=O)N[C@H](C(N)=O)C(C)C)[C@@H](C)CC)[C@@H](C)O)[C@@H](C)CC)[C@@H](C)CC)C(C)C)C(C)C [compound 81] (H-IVLSLDVPIKLK([AEEA-AEEA-γGlu-C20 diacid])QILLEQEKQK[Aib]QREQAETNKQILAQV-NH2)			0.14 nM	18.5 nM	0.94 nM	> 1000 nM	23.3%	110 nM	20.4 mg/mL (≈ 3.97 mM)	> 9.6 mg/mL			
CC[C@H](C)[C@H](N)C(=O)N[C@H](C(=O)N[C@@H](CC(C)C)C(=O)N[C@@H](CO)C(=O)N[C@@H](CC(C)C)C(=O)N[C@@H](CC(=O)O)C(=O)N[C@@H](C(=O)N1CCC[C@H]1C(=O)N[C@H](C(=O)N[C@@H](CCCCN)C(=O)N[C@@H](CC(C)C)C(=O)N[C@@H](CCCCNC(=O)COCCOCCNC(=O)COCCOCCNC(=O)CC[C@H](NC(=O)CCCCCCCCCCCCCCCCC(=O)O)C(=O)O)C(=O)N[C@@H](CCC(N)=O)C(=O)N[C@H](C(=O)N[C@@H](CC(C)C)C(=O)N[C@@H](CC(C)C)C(=O)N[C@@H](CCCCN)C(=O)N[C@@H](CCC(N)=O)C(=O)N[C@@H](CCC(=O)O)C(=O)N[C@@H](CCCNC(=N)N)C(=O)N[C@@H](CCC(N)=O)C(=O)N[C@@H](CCCCN)C(=O)NC(C)(C)C(=O)N[C@@H](CCC(N)=O)C(=O)N[C@@H](CCCNC(=N)N)C(=O)N[C@@H](CCC(=O)O)C(=O)N[C@@H](CCC(N)=O)C(=O)N[C@@H](C)C(=O)N[C@@H](CCC(=O)O)C(=O)N[C@@H](CCCCN)C(=O)N[C@@H](CC(N)=O)C(=O)N[C@@H](CCCCN)C(=O)N[C@@H](CCC(N)=O)C(=O)N[C@H](C(=O)N[C@@H](CC(C)C)C(=O)N[C@@H](C)C(=O)N[C@@H](CCC(N)=O)C(=O)N[C@H](C(N)=O)C(C)C)[C@@H](C)CC)[C@@H](C)CC)[C@@H](C)CC)C(C)C)C(C)C [compound 130] (H-IVLSLD[dV]PIKLK([AEEA-AEEA-γGlu-C18 diacid])QILLKQERQK[Aib]QREQAEKNKQILAQV-NH2; N-terminus assumed)			0.05 nM	2.11 nM	0.13 nM	> 1000 nM	20.3%	4.3 nM			4.25%	No	>45 h
